Measurements published in EP0633893B1, “17-SUBSTITUTED STEROIDS USEFUL IN CANCER TREATMENT” (priority 1992, dated 1993).
Where two headings read alike, the source gives them in different places.

What was measured:
[1] = test system: Male HWT mice; format: in vivo; settings: daily for 2 weeks, mean ± standard error
Protocol: (§1) Male HWT mice, 12 weeks old, were treated daily for 2 weeks, with 5 animals per treatment group. The test compounds were the compound of Examples 1 and 4 (as representative of compounds of the invention having the pregenolone-like and progesterone-like skeletons respectively). Ketoconazole was also tested at three different doses. The test compounds were made up in 5% benzyl alcohol, 95% safflower oil, and were given i.p.. In addition to an untreated control group of animals, there was also a solvent control group which received the same volume of liquid as the test group (5ml/kg) but no test compound. All animals were sacrificed 24 hours after the last injection. Blood was collected by cardiac puncture into heparinized tubes, and the plasma used for RIA (radio immunoassay) of testosterone and luteinising hormone. The following organs were removed and weighed: adrenals, prostate, seminal vesicles, testes, kidneys. There was no significant body weight loss in any group of mice during the experiments.

[2] = test system: testosterone; assay: In vivo endocrine test in mice: RIA of plasma testosterone; settings: 2 weeks, plasma 24 hours after last injection, mean ± standard error
Protocol: Male HWT mice, 12 weeks old, were treated daily for 2 weeks, with 5 animals per treatment group. […] The test compounds were made up in 5% benzyl alcohol, 95% safflower oil, and were given i.p.. In addition to an untreated control group of animals, there was also a solvent control group which received the same volume of liquid as the test group (5ml/kg) but no test compound. All animals were sacrificed 24 hours after the last injection. Blood was collected by cardiac puncture into heparinized tubes, and the plasma used for RIA (radio immunoassay) of testosterone and luteinising hormone.

[3] = test system: luteinising hormone; assay: In vivo endocrine test in mice: RIA of plasma luteinising hormone; settings: 2 weeks, plasma 24 hours after last injection, mean ± standard error
Protocol: as §1

[4] = test system: Male HWT mice; settings: mouse, in vivo; for Post mortem examination: appearance of organs / Post mortem examination: deposits: ip
Protocol: as §1
In Ketoconazole-treated animals, adhesions were found in 2/5,2/5,4/5 of the low/middle/top dose groups. […] The livers were brown in the middle/top dose groups.

[5] = biological target: T1, aromatase (Homo sapiens, UniProt P11511); assay: biochemical
T1 sequence (P11511 1-503): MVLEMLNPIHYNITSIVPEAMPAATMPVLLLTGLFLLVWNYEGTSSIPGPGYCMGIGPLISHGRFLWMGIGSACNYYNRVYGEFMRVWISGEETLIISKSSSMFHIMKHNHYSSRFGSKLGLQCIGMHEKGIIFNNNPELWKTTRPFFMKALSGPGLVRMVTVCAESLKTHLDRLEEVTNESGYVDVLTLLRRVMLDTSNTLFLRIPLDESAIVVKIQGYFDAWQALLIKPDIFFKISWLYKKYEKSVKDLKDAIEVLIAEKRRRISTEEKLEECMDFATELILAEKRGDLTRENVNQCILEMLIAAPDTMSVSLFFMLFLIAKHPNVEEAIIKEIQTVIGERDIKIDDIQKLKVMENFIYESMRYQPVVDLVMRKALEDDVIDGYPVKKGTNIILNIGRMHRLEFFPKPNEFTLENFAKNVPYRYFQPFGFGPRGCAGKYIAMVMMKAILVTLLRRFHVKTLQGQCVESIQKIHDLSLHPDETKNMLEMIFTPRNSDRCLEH
Protocol: Aromatase activity was determined by the method of A. B. Foster et al., J. Med. Chem. 26, 50-54 (1983), using human placental microsomes.

[6] = biological target: T2, C17-C20 lyase (Homo sapiens, UniProt P05093); assay: Determination of C17-C20 lyase (human testicular microsomes, 3H-17α-hydroxyprogesterone substrate, HPLC); format: biochemical
T2 construct: The microsomal pellet was then resuspended in 50mM sodium phosphate pH 7.4/glycerol (3/1 v/v) and stored in aliquots in liquid nitrogen; from tissue; host or cells: human testis microsomes
T2 sequence (P05093 1-508): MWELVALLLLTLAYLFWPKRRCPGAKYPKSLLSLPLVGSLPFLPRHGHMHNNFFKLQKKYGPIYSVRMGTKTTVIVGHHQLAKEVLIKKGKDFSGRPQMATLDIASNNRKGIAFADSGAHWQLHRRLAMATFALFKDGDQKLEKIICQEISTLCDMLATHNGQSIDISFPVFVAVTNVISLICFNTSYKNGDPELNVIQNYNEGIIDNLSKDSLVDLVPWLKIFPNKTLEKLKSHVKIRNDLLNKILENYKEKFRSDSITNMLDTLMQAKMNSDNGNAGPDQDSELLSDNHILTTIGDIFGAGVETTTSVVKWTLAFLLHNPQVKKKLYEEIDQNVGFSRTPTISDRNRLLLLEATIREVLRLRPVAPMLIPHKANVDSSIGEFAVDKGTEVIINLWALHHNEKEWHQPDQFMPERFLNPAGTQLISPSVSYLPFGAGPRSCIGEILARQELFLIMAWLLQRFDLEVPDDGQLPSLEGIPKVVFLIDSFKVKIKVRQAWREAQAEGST
Protocol: Human testes were obtained from previously untreated patients undergoing orchidectomy for prostatic cancer. The testes were decapsulated and stored in liquid nitrogen until use. […] The material was then thawed, finely chopped, and homogenised in 0.25M sucrose (5ml/g wet weight) using a Potter homogeniser. The homogenate was centrifuged at 12000g for 30 min, and then the microsomes were pelleted by spinning the supernatant at 100,000g for lhr. The pellet was washed by being resuspended in 0.25M sucrose and repelleted. The microsomal pellet was then resuspended in 50mM sodium phosphate pH 7.4/glycerol (3/1 v/v) and stored in aliquots in liquid nitrogen.
The mixture was the same as described above for the 17«-hydroxylase except that the substrate was ^3H-17α-hydroxyprogesterone.
The HPLC separation used for the lyase involved a mini-re-column "Uptight Guard Column" packed with PELL-ODS (pellicular octadecyl silica) and a 10cm. main column "Apex C18" column packed with 5µ APEX-CAT silica. The eluant was 38:12:50 methanol:acetonitrile:water flowing at lml/min. The effluent was mixed 1:1 with Ecoscint A containing 5% methanol and 5% acetonitrile and the radioactivity was measured directly by a Berthold LB506C radiochemical detector. The lyase activity was measured as the production of androstenedione and testosterone.
The enzyme activity was measured in the presence of at least 4 concentrations of each compound. The data were for the 4-pyridyl and 2-picolyl compounds of Table 1 fitted by linear regression to the Dixon equation (M. Dixon, E.C. Webb, Enzymes, 2nd ed., Academic Press, New York, 1964). Data for all the other compounds were fitted by non-linear regression to the median effect equation of Chou, J. Theoret.

[7] = biological target: T3, 17α-hydroxylase (Homo sapiens, UniProt P05093); assay: Determination of 17α-hydroxylase (human testicular microsomes, 3H-progesterone substrate, HPLC); format: biochemical
T3 construct: The microsomal pellet was then resuspended in 50mM sodium phosphate pH 7.4/glycerol (3/1 v/v) and stored in aliquots in liquid nitrogen; from tissue; host or cells: human testis microsomes
T3 sequence (P05093 1-508): T2 sequence (P05093 1-508)
Protocol: Human testes were obtained from previously untreated patients undergoing orchidectomy for prostatic cancer. The testes were decapsulated and stored in liquid nitrogen until use. A microsomal preparation was prepared essentially as described by S. E. Barrie et al., J. Steroid Biochem. 6, 1191-5, (1989). The material was then thawed, finely chopped, and homogenised in 0.25M sucrose (5ml/g wet weight) using a Potter homogeniser. The homogenate was centrifuged at 12000g for 30 min, and then the microsomes were pelleted by spinning the supernatant at 100,000g for lhr. The pellet was washed by being resuspended in 0.25M sucrose and repelleted. The microsomal pellet was then resuspended in 50mM sodium phosphate pH 7.4/glycerol (3/1 v/v) and stored in aliquots in liquid nitrogen.
The basic assay mixture was EDTA (0.2mM), dithiothreitol (DTT; 0.1mM), NADPH (0.25mM), glucose 6-phosphate dehydrogenase (G6PDH; 6.25 µg/ml), MgCl2 (1mM), glucose 6-phosphate (G6P; 10mM) and the substrate, ^3H-progesterone (3µM) in sodium phosphate (50mm), pH 7.4. The compounds under test were dissolved in 50% DMSO and the final concentrations of ethanol and DMSO were 1% each. The assay reaction was carried out for 1 hour and was terminated by the addition of 2 vols. of methanol-acetonitrile (2:1) containing approx. 100µM unlabelled progesterone, 17α-hydroxyprogesterone, androstenedione, testosterone, and 16α-hydroxyprogesterone.
The separation of the steroids by HPLC was carried out using an "Uptight" guard column packed with 40-63µm Nucleosil C18 and a 10cm main column packed with 5µm Nucleosil C18 and 60% methanol as eluant. The radioactivity in the peaks of interest was monitored on-line by mixing the HPLC effluent 1:1 with Ecoscint A (National Diagnostics) scintillation fluid, containing 25% acetonitrile, and passing the mixture through a Berthold LB506C radiochemical monitor. The hydroxylase activity was measured as the production of 17α-hydroxyprogesterone, androstenedione and testosterone.
The enzyme activity was measured in the presence of at least 4 concentrations of each compound.

[8] = approx. 4nM enzyme, read-out: IC50 (µM) Lyase
[9] = approx. 4nM enzyme, read-out: IC50 (µM) Hydroxylase
[10] = 25nM lyase, read-out: IC50 (µM) Lyase
[11] = 10nM hydroxylase, read-out: IC50 (µM) Hydroylase

CC(=O)O[C@H]1CC[C@@]2(C)C(=CC[C@@H]3[C@@H]2CC[C@]2(C)C(c4cccnc4)=CC[C@@H]32)C1 [Ex. 1, 3β-Acetoxy-17-(3-pyridyl)androsta-5,16-diene]
Mean weight Kidneys ([1]; 0.02 mmol/kg/day i.p.): 604 ± 24 mg
Mean weight Prostate ([1]; 0.02 mmol/kg/day i.p.): 8.0 ± 0.6 mg
Mean weight Seminal Vesicles ([1]; 0.02 mmol/kg/day i.p.): 136 ± 4 mg
Mean weight Testes ([1]; 0.02 mmol/kg/day i.p.): 134 ± 4 mg
Mean weight Kidneys ([1]; 0.1 mmol/kg/day i.p.): 500 ± 8 mg
Mean weight Prostate ([1]; 0.1 mmol/kg/day i.p.): 5.3 ± 0.3 mg
Mean weight Seminal Vesicles ([1]; 0.1 mmol/kg/day i.p.): 51 ± 6 mg
Mean weight Testes ([1]; 0.1 mmol/kg/day i.p.): 95 ± 3 mg
Mean weight Kidneys ([1]; 0.5 mmol/kg/day i.p.): 449 ± 12 mg
Mean weight Prostate ([1]; 0.5 mmol/kg/day i.p.): 5.6 ± 0.6 mg
Mean weight Seminal Vesicles ([1]; 0.5 mmol/kg/day i.p.): 25 ± 2 mg
Mean weight Testes ([1]; 0.5 mmol/kg/day i.p.): 56 ± 2 mg
Testosterone ([2]; 0.02Mmol/Kg/Day i.p.): 2.7 ± 0.5 nM
Testosterone ([2]; 0.5Mmol/Kg/Day i.p.): 0.1 ± 0.0 nM
Testosterone ([2]; i.p.): 0.2 ± 0.1 nM
LH ([3]; 0.02Mmol/Kg/Day i.p.): 3.4 ± 0.5 ng/mL
LH ([3]; 0.1Mmol/Kg/Day i.p.): 2.55 ± 0.45 ng/mL
LH ([3]; 0.5Mmol/Kg/Day i.p.): 2.25 ± 0.67 ng/mL
Post mortem examination: appearance of organs [4]: all organs looked normal
Post mortem examination: deposits [4]: oil/white deposits i.p.
IC50 [5]: > 20000 nM

C[C@]12CC[C@H](O)CC1=CC[C@@H]1[C@@H]2CC[C@]2(C)C(c3cccnc3)=CC[C@@H]12 [Ex. 2, 17-(3-Pyridyl)androsta-5,16-dien-3β-ol]
IC50 [6, 8]: 0.0029 µM
IC50 [7, 9]: 0.004 µM

C[C@]12CCC=CC1=CC[C@@H]1[C@@H]2CC[C@]2(C)C(c3cccnc3)=CC[C@@H]12 [Ex. 3, 17-(3-Pyridyl)androsta-3,5,16-triene]
IC50 [6, 8]: 0.0056 µM
IC50 [7, 9]: 0.0125 µM

C[C@]12CCC(=O)C=C1CC[C@@H]1[C@@H]2CC[C@]2(C)C(c3cccnc3)=CC[C@@H]12 [Ex. 4, 17-(3-Pyridyl)androsta-4,16-dien-3-one]
IC50 [6, 8]: 0.0021 µM
IC50 [7, 9]: 0.0028 µM
Mean weight Kidneys ([1]; 0.02 mmol/kg/day i.p.): 599 ± 29 mg
Mean weight Prostate ([1]; 0.02 mmol/kg/day i.p.): 5.9 ± 0.8 mg
Mean weight Seminal Vesicles ([1]; 0.02 mmol/kg/day i.p.): 108 ± 4 mg
Mean weight Testes ([1]; 0.02 mmol/kg/day i.p.): 117 ± 9 mg
Mean weight Kidneys ([1]; 0.1 mmol/kg/day i.p.): 549 ± 28 mg
Mean weight Prostate ([1]; 0.1 mmol/kg/day i.p.): 6.4 ± 0.5 mg
Mean weight Seminal Vesicles ([1]; 0.1 mmol/kg/day i.p.): 61 ± 9 mg
Mean weight Testes ([1]; 0.1 mmol/kg/day i.p.): 105 ± 5 mg
Mean weight Kidneys ([1]; 0.5 mmol/kg/day i.p.): 468 ± 15 mg
Mean weight Prostate ([1]; 0.5 mmol/kg/day i.p.): 4.1 ± 0.5 mg
Mean weight Seminal Vesicles ([1]; 0.5 mmol/kg/day i.p.): 25 ± 1 mg
Mean weight Testes ([1]; 0.5 mmol/kg/day i.p.): 59 ± 2 mg
Testosterone ([2]; 0.02Mmol/Kg/Day i.p.): 4.5 ± 0.3 nM
Testosterone ([2]; 0.5Mmol/Kg/Day i.p.): 0.4 ± 0.1 nM
Testosterone ([2]; i.p.): 3.5 ± 1.0 nM
Post mortem examination: appearance of organs [4]: all organs looked normal
Post mortem examination: deposits [4]: white deposits throughout the abdomen
IC50 [5]: 1000 nM

C[C@]12CC[C@@H]3c4ccc(O)cc4CC[C@H]3[C@@H]1CC=C2c1cccnc1 [Ex. 6, 17-(3-Pyridyl)estra-1,3,5[10],16-tetraen-3-ol]
IC50 [6, 8]: 0.0018 µM
IC50 [7, 9]: 0.0026 µM

C[C@]12CC[C@@H](O)C[C@@H]1CC[C@@H]1[C@@H]2CC[C@]2(C)C(c3cccnc3)=CC[C@@H]12 [Ex. 8, 17-(3-Pyridyl)-5α-androst-16-en-3α-ol]
IC50 [6]: 0.0025 µM
IC50 [7]: 0.0043 µM

C[C@]12CCC(=O)C[C@@H]1CC[C@@H]1[C@@H]2CC[C@]2(C)C(c3cccnc3)=CC[C@@H]12 [Ex. 9, 17-(3-Pyridyl)-5α-androst-16-en-3-one]
IC50 [6]: 0.003 µM

C[C@]12CCC(=O)C=C1CC[C@@H]1[C@@H]2C(=O)C[C@]2(C)C(c3cccnc3)=CC[C@@H]12 [Ex. 10, 17-(3-Pyridyl)androsta-4,16-diene-3,11-dione]
IC50 [6, 8]: 0.0025 µM
IC50 [7, 9]: 0.0091 µM

C[C@]12CCC(=O)C=C1[C@H](F)C[C@@H]1[C@@H]2CC[C@]2(C)C(c3cccnc3)=CC[C@@H]12 [Ex. 12, 6β-Fluoro-17-(3-pyridyl)androsta-4,16-dien-3-one]
IC50 [6, 8]: 0.0022 µM
IC50 [7, 9]: 0.0033 µM

C[C@]12CCC(=O)C=C1[C@@H](F)C[C@@H]1[C@@H]2CC[C@]2(C)C(c3cccnc3)=CC[C@@H]12 [Ex. 13, 6α-Fluoro-17-(3-pyridyl)androsta-4,16-dien-3-one]
IC50 [6, 8]: 0.0032 µM
IC50 [7, 9]: 0.0053 µM

C[C@]12CC[C@H](O)CC1=CC[C@@H]1[C@@H]2CC[C@]2(C)C(c3ccccn3)=CC[C@@H]12 [Example 2-Pyridyl, reference compound]
IC50 [6]: 0.13 µM
IC50 [7]: 0.32 µM

C[C@]12CC[C@H](O)CC1=CC[C@@H]1[C@@H]2CC[C@]2(C)C(Cc3ccccn3)=CC[C@@H]12 [Example 2-picolyl, reference compound]
IC50 [6, 10]: > 10 µM
IC50 [7, 11]: > 10 µM

C[C@]12CC[C@H](O)CC1=CC[C@@H]1[C@@H]2CC[C@]2(C)C(c3ccncc3)=CC[C@@H]12 [Example 4-pyridyl, reference compound]
IC50 [6, 10]: 2 µM
IC50 [7, 11]: 5 µM

CC(=O)N1CCN(c2ccc(OCC3COC(Cn4ccnc4)(c4ccc(Cl)cc4Cl)O3)cc2)CC1 (stereo not drawn) [Ketoconazole, reference compound]
Mean weight Kidneys ([1]; 0.01mmol/kg/day i.p.): 637 ± 22 mg
Mean weight Prostate ([1]; 0.01mmol/kg/day i.p.): 9.1 ± 0.8 mg
Mean weight Seminal Vesicles ([1]; 0.01mmol/kg/day i.p.): 235 ± 18 mg
Mean weight Testes ([1]; 0.01mmol/kg/day i.p.): 141 ± 5 mg
Mean weight Kidneys ([1]; 0.225 mmol/kg/day i.p.): 574 ± 23 mg
Mean weight Prostate ([1]; 0.225 mmol/kg/day i.p.): 10.8 ± 1.4 mg
Mean weight Seminal Vesicles ([1]; 0.225 mmol/kg/day i.p.): 171 ± 5 mg
Mean weight Testes ([1]; 0.225 mmol/kg/day i.p.): 127 ± 7 mg
Mean weight Kidneys ([1]; 0.5 mmol/kg/day i.p.): 710 ± 30 mg
Mean weight Prostate ([1]; 0.5 mmol/kg/day i.p.): 9.3 ± 0.9 mg
Mean weight Seminal Vesicles ([1]; 0.5 mmol/kg/day i.p.): 179 ± 20 mg
Mean weight Testes ([1]; 0.5 mmol/kg/day i.p.): 133 ± 6 mg
LH ([3]; 0.1Mmol/Kg/Day i.p.): 0.39 ± 0.14 ng/mL
LH ([3]; 0.225Mmol/Kg/Day i.p.): 0.75 ± 0.02 ng/mL
LH ([3]; 0.5Mmol/Kg/Day i.p.): 0.76 ± 0.03 ng/mL
Post mortem examination: livers [4]: brown
